Values after ≈ are worked out from the molar mass of the structure shown. Active and inactive are the calls of the source. The calls are words filed in the database; no cut-off is given here.
How the values were obtained:
[1] = tested on: Streptococcus pneumoniae; assay: Antimicrobial activity against drug-sensitive Streptococcus pneumoniae CL2883 in CAMHB medium containing 2.5% horse blood after 20 hrs by twofold serial dilution method; type: functional
[2] = tested on: Staphylococcus aureus; assay: Antimicrobial activity against methicillin-sensitive Staphylococcus aureus ATCC 29213 at 16 ug/mL after 20 hrs by twofold serial dilution method; type: functional
[3] = tested on: Staphylococcus aureus; assay: Ratio of IC50 for RNA synthesis to IC50 for protein synthesis in Staphylococcus aureus; type: functional
[4] = tested on: Candida albicans; assay: Antimicrobial activity against wild-type Candida albicans MY1055 after 20 hrs by twofold serial dilution method; type: functional; settings: MY1055, 20 h
[5] = tested on: Haemophilus influenzae; assay: Antimicrobial activity against drug-sensitive Haemophilus influenzae MB4572 after 20 hrs by twofold serial dilution method; type: functional
[6] = tested on: Staphylococcus aureus; assay: Antibacterial activity against Staphylococcus aureus RN450 bearing RPSD antisense S1-782B plasmid assessed as minimum detection concentration after 18 hrs by rpsD sensitized two-plate differential sensitivity assay; type: functional
[7] = tested on: Staphylococcus aureus; assay: Antibacterial activity against wild-type Staphylococcus aureus RN450 assessed as faint zone of clearance at 31.25 ug/mL after 18 hrs by rpsD sensitized two-plate differential sensitivity assay; type: functional, organism-based
[8] = tested on: Staphylococcus aureus; assay: Antimicrobial activity against methicillin-sensitive Staphylococcus aureus MB2865 after 20 hrs by twofold serial dilution method; type: functional
[9] = tested on: Streptococcus pneumoniae; assay: Antimicrobial activity against drug-sensitive Streptococcus pneumoniae CL2883 in isosensitet medium after 20 hrs by twofold serial dilution method; type: functional
[10] = tested on: Bacillus subtilis; assay: Antimicrobial activity against wild-type Bacillus subtilis MB964 after 20 hrs by twofold serial dilution method; type: functional
[11] = tested on: Staphylococcus aureus; assay: Inhibition of protein synthesis in Staphylococcus aureus assessed as [3H]leucine incorporation by scintillation counting; type: functional, organism-based
[12] = tested on: Staphylococcus aureus; assay: Antibacterial activity against wild-type Staphylococcus aureus RN450 at 1000 ug/mL after 18 hrs by rpsD sensitized two-plate differential sensitivity assay; type: functional; settings: RN450, 18 h, read-out: IZ
[13] = tested on: Streptococcus pneumoniae; assay: Antimicrobial activity against drug-sensitive Streptococcus pneumoniae CL2883 in isosensitet medium at 2 ug/mL after 20 hrs by twofold serial dilution method; type: functional
[14] = tested on: Escherichia coli; assay: Antimicrobial activity against wild-type Escherichia coli MB2884 after 20 hrs by twofold serial dilution method; type: functional
[15] = tested on: Staphylococcus aureus; assay: Antibacterial activity against Staphylococcus aureus RN450 bearing RPSD antisense S1-782B plasmid at 1000 ug/mL after 18 hrs by rpsD sensitized two-plate differential sensitivity assay; type: functional; settings: RN450, 18 h, read-out: IZ
[16] = tested on: Staphylococcus aureus; assay: Antimicrobial activity against methicillin-sensitive Staphylococcus aureus MB2865 at 4 ug/mL after 20 hrs by twofold serial dilution method; type: functional
[17] = tested on: Staphylococcus aureus; assay: Ratio of IC50 for RNA synthesis to IC50 for DNA synthesis in Staphylococcus aureus; type: functional
[18] = tested on: Staphylococcus aureus; assay: Antibacterial activity against Staphylococcus aureus RN450 bearing RPSD antisense S1-782B plasmid assessed as faint zone of clearance at 31.25 ug/mL after 18 hrs by rpsD sensitized two-plate differential sensitivity assay; type: functional; settings: RN450, 18 h, read-out: IZ
[19] = tested on: HeLa; assay: Cytotoxicity against human HeLa cells; type: functional, cell-based
[20] = tested on: Staphylococcus aureus; assay: Antimicrobial activity against methicillin-sensitive Staphylococcus aureus MB2865 after 20 hrs by twofold serial dilution method in presence of 50% human serum; type: functional
[21] = tested on: Staphylococcus aureus; assay: Inhibition of RNA synthesis in Staphylococcus aureus assessed as [3H]uracil incorporation by scintillation counting; type: functional, organism-based
[22] = tested on: Staphylococcus aureus; assay: Antibacterial activity against Staphylococcus aureus RN450 bearing RPSD antisense S1-782B plasmid after 18 hrs by rpsD sensitized two-plate differential sensitivity assay; type: functional, organism-based
[23] = tested on: Escherichia coli; assay: Antimicrobial activity against Escherichia coli MB5746 envA1, tolC mutant after 20 hrs by twofold serial dilution method; type: functional
[24] = tested on: Staphylococcus aureus; assay: Antimicrobial activity against methicillin-sensitive Staphylococcus aureus ATCC 29213 after 20 hrs by twofold serial dilution method; type: functional; settings: ATCC 29213, 20 h
[25] = tested on: Enterococcus faecalis; assay: Antimicrobial activity against vancomycin-sensitive macrolide-resistant Enterococcus faecalis CL8516 after 20 hrs by twofold serial dilution method; type: functional
[26] = tested on: Staphylococcus aureus; assay: Inhibition of DNA synthesis in Staphylococcus aureus assessed as [3H]thymidine incorporation by scintillation counting; type: functional, organism-based

## Cc1cc(O)c2c(c1)C(=O)C1=C(C2=O)[C@@H](O)[C@@H](O)[C@@H](O)C1 [PLEOSPORONE]
[1]
  MIC: 4 µg/mL (≈ 13.8 µM)
[2]
  Activity: 80%
[3]
  Ratio IC50: 6
[4]
  MIC: > 64 µg/mL
[5]
  MIC: 1 µg/mL (≈ 3.45 µM)
[6]
  Activity: 31.25 µg/mL
[7]
  Activity: inactive
[8]
  MIC: 64 µg/mL (≈ 220 µM)
[9]
  MIC: 4 µg/mL (≈ 13.8 µM)
[10]
  MIC: 8 µg/mL (≈ 27.6 µM)
[11]
  IC50: 15.4 µg/mL (≈ 53.1 µM)
[12]
  zone of inhibition at 1000 µg/mL: 19.2 mm
[13]
  Activity: 80%
[14]
  MIC: > 64 µg/mL
[15]
  zone of inhibition at 1000 µg/mL: 21.8 mm
[16]
  Activity: 80%
[17]
  Ratio IC50: 6
[18]
  zone of inhibition at 31.25 µg/mL: 9 mm
[19]
  IC50: 0.23 µg/mL (≈ 0.792 µM)
[20]
  MIC: > 64 µg/mL
[21]
  IC50: 1.3 µg/mL (≈ 4.48 µM)
[22]
  Activity: Dose-dependent effect
[23]
  MIC: 16 µg/mL (≈ 55.1 µM)
[24]
  MIC: > 64 µg/mL
  MIC80: 4 µg/mL (≈ 13.8 µM)
[25]
  MIC: 64 µg/mL (≈ 220 µM)
[26]
  IC50: 8.4 µg/mL (≈ 28.9 µM)

Source: ChEMBL document CHEMBL1154489, “Isolation, structure and antibacterial activity of pleosporone from a pleosporalean ascomycete discovered by using antisense strategy” (Bioorg Med Chem, 2009)
